The values below come from ChEMBL document CHEMBL1151637, “A flavone with antiinflammatory activity from the roots of Rhus undulata” (1984).

Active and inactive are the calls of the source. The rule behind the calls is not given here.

In assay [1] the test system is Rattus norvegicus. The assay is described as follows: Antiinflammatory activity against rat assessed as inhibition of carrageenan-induced edema. It counts as functional. (In general: The carrageenan paw model is a standard test of acute inflammation.)
The subject of assay [2] is Rattus norvegicus. In words: Antiinflammatory activity against rat assessed as inhibition of carrageenan-induced edema at 75 mg/kg. It counts as functional.

As for `C[C@@H]1O[C@@H](O[C@H]2[C@H](Oc3cc(O)c4c(c3)O[C@H](c3ccc(O)cc3)CC4=O)O[C@H](CO)[C@@H](O)[C@@H]2O)[C@H](O)[C@H](O)[C@H]1O`, the outcome with Rattus norvegicus [1] was inactive.

What is called inhibition in vivo is the share of the control response that was lost under treatment. As for `COc1ccc(-c2cc(=O)c3c(O)cc(OC)cc3o2)cc1` [APIGENIN DIMETHYLETHER], the inhibition in vivo at 75 mg/kg in the assay on Rattus norvegicus [2] was 25%. Moreover, in the assay with Rattus norvegicus [1], the ED25 stood at 75 mg/kg.

For the compound `C[C@]12CCC(=O)C=C1CC[C@@H]1[C@@H]2[C@@H](O)C[C@@]2(C)[C@H]1CC[C@]2(O)C(=O)COP(=O)(O)O` [HYDROCORTISONE PHOSPHORIC ACID], the ED25 in the assay on Rattus norvegicus [1] came to 13.5 mg/kg.

For the compound `COc1ccc(-c2cc(=O)c3c(OC)c(OC)c(OC)c(OC)c3o2)cc1OC` [NOBILETIN], the ED25 with Rattus norvegicus [1] came out at 20 mg/kg.

For `CCCCC1C(=O)N(c2ccccc2)N(c2ccccc2)C1=O` [PHENYLBUTAZONE], the inhibition in vivo at 75 mg/kg with Rattus norvegicus [2] was determined as 81%.
